In PubChem BioAssay AID248 (DTP/NCI, 2004):
“And” between values parts separate entries of the source, which are not always exact repeats. Identical values can stand only once. Inconclusive results and toxic doses are left out.

Test system: L1210 leukemia ip in BDF1 mice, survival T/C
Assay: NCI In Vivo Anticancer Drug Screen. Data for tumor model L1210 Leukemia (intraperitoneal) in B6D2F1 (BDF1) mice
Conditions: endpoint: mean survival time, higher = longer survival
In short: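 Antitumor effect is assessed in tumor-bearing animals. Survival in the compound arm is compared with a vehicle-dosed control arm and expressed as their quotient.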

[1] = dose: 100.0 mg/kg/injection, schedule: Q01DX001 (ip), vehicle: saline
[2] = dose: 100.0 mg/kg/injection, schedule: Q01DX009 (ip), vehicle: saline
[3] = dose: 200.0 mg/kg/injection, schedule: Q01DX001 (ip), vehicle: saline
[4] = dose: 200.0 mg/kg/injection, schedule: Q01DX009 (ip), vehicle: saline
[5] = dose: 400.0 mg/kg/injection, schedule: Q01DX001 (ip), vehicle: saline
[6] = dose: 100.0 mg/kg/injection, schedule: Q01DX009 (ip), vehicle: Klucel (hydroxypropylcellulose) (HPC)
[7] = dose: 100.0 mg/kg/injection, schedule: Q04DX003 (ip), vehicle: Klucel (hydroxypropylcellulose) (HPC)
[8] = dose: 200.0 mg/kg/injection, schedule: Q01DX009 (ip), vehicle: Klucel (hydroxypropylcellulose) (HPC)
[9] = dose: 200.0 mg/kg/injection, schedule: Q04DX003 (ip), vehicle: Klucel (hydroxypropylcellulose) (HPC)
[10] = dose: 400.0 mg/kg/injection, schedule: Q04DX003 (ip), vehicle: Klucel (hydroxypropylcellulose) (HPC)
[11] = dose: 100.0 mg/kg/injection, schedule: Q01DX001 (ip), vehicle: carboxymethylcellulose (CMC)
[12] = dose: 200.0 mg/kg/injection, schedule: Q01DX001 (ip), vehicle: carboxymethylcellulose (CMC)
[13] = dose: 400.0 mg/kg/injection, schedule: Q01DX001 (ip), vehicle: carboxymethylcellulose (CMC)
[14] = dose: 50.0 mg/kg/injection, schedule: Q01DX001 (ip), vehicle: carboxymethylcellulose (CMC)
[15] = dose: 100.0 mg/kg/injection, schedule: Q04DX003 (ip), vehicle: saline with Tween-80
[16] = dose: 200.0 mg/kg/injection, schedule: Q04DX003 (ip), vehicle: saline with Tween-80
[17] = dose: 400.0 mg/kg/injection, schedule: Q04DX003 (ip), vehicle: saline with Tween-80
[18] = dose: 100.0 mg/kg/injection, schedule: Q01DX001 (ip), vehicle: Klucel (hydroxypropylcellulose) (HPC)

Compound: CNC(=N)c1ccc(NC(=N)c2ccc(NC(=N)c3ccc(NC(=O)Nc4ccc(C#N)cc4)cc3)cc2)cc1
- T/C (dose: 3.25 mg/kg/injection, schedule: Q01DX015 (ip), vehicle: water): 119 % of control
- T/C (dose: 13.0 mg/kg/injection, schedule: Q01DX015 (ip), vehicle: water): 160 % of control
- T/C (dose: 17.0 mg/kg/injection, schedule: Q01DX Z (ip), vehicle: water): 152 % of control
- T/C (dose: 26.0 mg/kg/injection, schedule: Q01DX015 (ip), vehicle: water): 205 % of control
- T/C (dose: 30.0 mg/kg/injection, schedule: Q01DX001 (ip), vehicle: water): 112 % of control
- T/C (dose: 32.5 mg/kg/injection, schedule: Q01DX001 (ip), vehicle: water): 180 % of control
- T/C (dose: 34.0 mg/kg/injection, schedule: Q01DX Z (ip), vehicle: water): 153 % of control
- T/C (dose: 50.0 mg/kg/injection, schedule: Q01DX001 (ip), vehicle: water): 151 % of control
- T/C (dose: 65.0 mg/kg/injection, schedule: Q01DX001 (ip), vehicle: water): 165 % of control and 210 % of control and 228 % of control
- T/C (dose: 97.0 mg/kg/injection, schedule: Q01DX001 (ip), vehicle: water): 232 % of control and 267 % of control

Compound: CC1C[N+](C)(C)NC1=O (centres undefined)
- T/C [1]: 98 % of control
- T/C [2]: 103 % of control
- T/C [3]: 103 % of control
- T/C [4]: 107 % of control
- T/C [5]: 92 % of control
- T/C (dose: 400.0 mg/kg/injection, schedule: Q01DX009 (ip), vehicle: saline): 91 % of control

Compound: O=CNNc1ccc([N+](=O)[O-])cc1
- T/C (dose: 50.0 mg/kg/injection, schedule: Q01DX009 (ip), vehicle: Klucel (hydroxypropylcellulose) (HPC)): 97 % of control
- T/C [6]: 100 % of control
- T/C [7]: 94 % of control
- T/C [8]: 86 % of control
- T/C [9]: 94 % of control
- T/C [10]: 94 % of control

Compound: C/C=C/C=C/COC(=O)C=C(C)C
- T/C (dose: 100.0 mg/kg/injection, schedule: Q04DX002 (ip), vehicle: saline): 107 % of control
- T/C (dose: 200.0 mg/kg/injection, schedule: Q04DX002 (ip), vehicle: saline): 101 % of control
- T/C (dose: 400.0 mg/kg/injection, schedule: Q04DX002 (ip), vehicle: saline): 107 % of control

Compound: COc1ccc(CCNC(=O)Cc2ccc(O)cc2)cc1OC
- T/C [11]: 100 % of control
- T/C [12]: 102 % of control
- T/C [13]: 96 % of control

Compound: N#CC(C#N)=C1c2ccccc2C(=O)c2ccccc21
- T/C [14]: 104 % of control
- T/C [11]: 104 % of control
- T/C [15]: 97 % of control
- T/C [12]: 104 % of control
- T/C [16]: 98 % of control
- T/C [13]: 106 % of control
- T/C [17]: 87 % of control

Compound: Oc1ccc(Br)cc1/C=N\NC(=S)Nc1ccc2cn[nH]c2c1
- T/C (dose: 25.0 mg/kg/injection, schedule: Q01DX001 (ip), vehicle: carboxymethylcellulose (CMC)): 90 % of control
- T/C [14]: 101 % of control
- T/C [11]: 93 % of control
- T/C [12]: 86 % of control
- T/C [13]: 107 % of control

Compound: CC(C)(C)c1cc(C(=S)N2CCN(C(=S)c3cc(C(C)(C)C)c(O)c(C(C)(C)C)c3)CC2)cc(C(C)(C)C)c1O
- T/C [7]: 97 % of control
- T/C [9]: 94 % of control
- T/C [10]: 96 % of control

Compound: C/C=C1/CN2CCC1CC2C(O)c1ccnc2ccc(O)cc12 (centres undefined)
- T/C (dose: 75.0 mg/kg/injection, schedule: Q01DX001 (ip), vehicle: saline): 101 % of control

Compound: O=C1OC(=O)C2C3CC(C12)C1C2C=CC(C2)C31 (centres undefined)
- T/C [15]: 91 % of control
- T/C [16]: 95 % of control
- T/C [17]: 103 % of control

Compound: Nc1ncc(C[P+](c2ccccc2)(c2ccccc2)c2ccccc2)c(N)n1
- T/C (dose: 12.5 mg/kg/injection, schedule: Q04DX003 (ip), vehicle: Klucel (hydroxypropylcellulose) (HPC)): 102 % of control
- T/C (dose: 25.0 mg/kg/injection, schedule: Q04DX003 (ip), vehicle: Klucel (hydroxypropylcellulose) (HPC)): 112 % of control
- T/C (dose: 50.0 mg/kg/injection, schedule: Q04DX003 (ip), vehicle: Klucel (hydroxypropylcellulose) (HPC)): 105 % of control

Compound: O=C(O)c1nsnc1C(=O)O
- T/C [3]: 102 % of control
- T/C [5]: 103 % of control

Compound: Nc1nc(-c2cccc(NC(=O)c3ccc(S(=O)(=O)F)cc3)c2)nc2[nH]ncc12
- T/C (dose: 25.0 mg/kg/injection, schedule: Q01DX001 (ip), vehicle: Klucel (hydroxypropylcellulose) (HPC)): 86 % of control
- T/C (dose: 50.0 mg/kg/injection, schedule: Q01DX001 (ip), vehicle: Klucel (hydroxypropylcellulose) (HPC)): 94 % of control
- T/C [18]: 86 % of control

Compound: CC1CCC2(C(=O)OC3OC(COC4OC(CO)C(OC5OC(C)C(O)C(O)C5O)C(O)C4O)C(O)C(O)C3O)CCC3(C)C(=CCC4C5(C)CC(O)C(O)C(C)(CO)C5CCC43C)C2C1C (centres undefined)
- T/C (dose: 100.0 mg/kg/injection, schedule: Q01DX001 (ip), vehicle: saline with Tween-80): 98 % of control
- T/C (dose: 200.0 mg/kg/injection, schedule: Q01DX001 (ip), vehicle: saline with Tween-80): 98 % of control
- T/C (dose: 400.0 mg/kg/injection, schedule: Q01DX001 (ip), vehicle: saline with Tween-80): 97 % of control

Compound: O=C1OC(Cc2ccccc2)(c2ccccc2)c2ccccc21 (centres undefined)
- T/C (dose: 50.0 mg/kg/injection, schedule: Q01DX009 (ip), vehicle: saline with Tween-80): 90 % of control
- T/C (dose: 100.0 mg/kg/injection, schedule: Q01DX009 (ip), vehicle: saline with Tween-80): 88 % of control
- T/C (dose: 200.0 mg/kg/injection, schedule: Q01DX009 (ip), vehicle: saline with Tween-80): 89 % of control

Compound: CCOC(=O)NCC(CCN(C)C)(c1cccc2ccccc12)C(C)C (centres undefined)
- T/C [2]: 98 % of control
- T/C [7]: 97 % of control
- T/C [4]: 107 % of control
- T/C [9]: 97 % of control

Compound: O=[N+]([O-])c1cccc(/C=N/N2CCN(/N=C/c3cccc([N+](=O)[O-])c3)CC2)c1
- T/C [1]: 102 % of control
- T/C [3]: 92 % of control
- T/C [5]: 96 % of control

Compound: CN(CSc1ccc([N+](=O)[O-])cc1)CSc1ccc([N+](=O)[O-])cc1
- T/C [1]: 94 % of control
- T/C [3]: 88 % of control
- T/C [5]: 94 % of control

Compound: Cc1cc(Cl)ccc1NS(=O)(=O)c1ccccc1
- T/C [6]: 107 % of control
- T/C [7]: 98 % of control
- T/C [8]: 98 % of control
- T/C [9]: 103 % of control
- T/C (dose: 400.0 mg/kg/injection, schedule: Q01DX009 (ip), vehicle: Klucel (hydroxypropylcellulose) (HPC)): 96 % of control
- T/C [10]: 97 % of control

Compound: COc1ccc(/C=C/c2cnnc3ccccc23)cc1OC
- T/C [18]: 113 % of control
- T/C (dose: 200.0 mg/kg/injection, schedule: Q01DX001 (ip), vehicle: Klucel (hydroxypropylcellulose) (HPC)): 98 % of control

Compound: C(=N/N=C(N/N=C/c1cccs1)N/N=C/c1cccs1)/c1cccs1
- T/C (dose: 15.0 mg/kg/injection, schedule: Q01DX Z (ip), vehicle: carboxymethylcellulose (CMC)): 97 % of control
- T/C (dose: 30.0 mg/kg/injection, schedule: Q01DX Z (ip), vehicle: carboxymethylcellulose (CMC)): 89 % of control
- T/C (dose: 60.0 mg/kg/injection, schedule: Q01DX Z (ip), vehicle: carboxymethylcellulose (CMC)): 97 % of control
- T/C (dose: 120.0 mg/kg/injection, schedule: Q01DX Z (ip), vehicle: carboxymethylcellulose (CMC)): 95 % of control and 97 % of control
- T/C (dose: 240.0 mg/kg/injection, schedule: Q01DX Z (ip), vehicle: carboxymethylcellulose (CMC)): 97 % of control
- T/C (dose: 240.0 mg/kg/injection, schedule: Q01DX Z (oral), vehicle: carboxymethylcellulose (CMC)): 107 % of control
- T/C (dose: 480.0 mg/kg/injection, schedule: Q01DX Z (ip), vehicle: carboxymethylcellulose (CMC)): 94 % of control
- T/C (dose: 480.0 mg/kg/injection, schedule: Q01DX Z (oral), vehicle: carboxymethylcellulose (CMC)): 107 % of control
- T/C (dose: 960.0 mg/kg/injection, schedule: Q01DX Z (oral), vehicle: carboxymethylcellulose (CMC)): 105 % of control
- T/C (dose: 1920.0 mg/kg/injection, schedule: Q01DX Z (oral), vehicle: carboxymethylcellulose (CMC)): 111 % of control
